Assay results as given in ChEMBL document CHEMBL1201862, “PubChem BioAssay data set” (2004).
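Dose response: 5 concentrations. Exposure: 48 h. Format: 96-well plates. Endpoint: linear interpolation; highest concentration if not reached. The concentration for 50% growth inhibition is given as GI50.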 Active and inactive are the calls of the source. Cut-off read from the data, not from the text of the source: active = GI50 up to about 1.1 µM and inactive = higher.

Experiments:
Assay in all cases: DTP human tumour cell line panel, 48 h
MOLT-4 = system: MOLT-4
SR = system: SR
EKVX = system: EKVX
SK-MEL-28 = system: SK-MEL-28
HT-29 = system: HT-29
RPMI-8226 = system: RPMI-8226
SNB-19 = system: SNB-19
SF-539 = system: SF-539
MDA-MB-435 = system: MDA-MB-435
HCT-116 = system: HCT-116
M14 = system: M14
HCC 2998 = system: HCC 2998
Hs-578T = system: Hs-578T
UACC-62 = system: UACC-62
SK-OV-3 = system: SK-OV-3
MDA-N = system: MDA-N
NCI-H522 = system: NCI-H522
SF-295 = system: SF-295
DU-145 = system: DU-145
HOP-92 = system: HOP-92

Measured: GI50

O=C(NC(=S)Nc1ccc2c(c1)Sc1ccccc1O2)c1ccccc1
inactive: MOLT-4 27.8 µM | SR 3.67 µM | EKVX 36.1 µM | SK-MEL-28 22.2 µM | HT-29 35.4 µM | RPMI-8226 51.3 µM | SNB-19 34 µM | SF-539 22.6 µM | MDA-MB-435 3.55 µM | HCT-116 41 µM | M14 43.2 µM | HCC 2998 7.46 µM | Hs-578T 39.6 µM | UACC-62 22.5 µM | SK-OV-3 29 µM | MDA-N 3.94 µM | NCI-H522 31.8 µM | SF-295 24.3 µM | DU-145 36.2 µM | HOP-92 24.2 µM

COC1=C(OC)C(=O)c2cc(C)c(=O)c(C)cc2C1=O
inactive: MOLT-4 2.27 µM | SR 2.65 µM | EKVX 17.3 µM | SK-MEL-28 16.5 µM | HT-29 22.1 µM | RPMI-8226 5.69 µM | SNB-19 18.4 µM | SF-539 18.2 µM | MDA-MB-435 1.8 µM | HCT-116 15.3 µM | M14 16.9 µM | HCC 2998 22.4 µM | Hs-578T 23.1 µM | UACC-62 13.4 µM | SK-OV-3 22 µM | MDA-N 2.53 µM | NCI-H522 14.6 µM | SF-295 32.6 µM | DU-145 16.9 µM | HOP-92 16.4 µM
